{"source": "patent US20240382607A1", "about": "(priority 2021, published 2024)", "key": {"[1]": {"tested_on": "SKBR3 tumor cells (HER2+)", "test": "In vitro cytotoxic activity screening, CTG assay, SKBR3", "assay_type": "cell-based", "experimental": "(§1) In this experiment, the ATP content was determined using CTG to reflect the survival condition of the tumor cells. […] The killing effect of the toxin molecule was then assayed according to this condition.\n(§2) According to the purpose of the experiment, two disease models of breast cancer and NSCLC were selected, and three cell strains of SKBR3 tumor cells (HER2+, ATCC, Cat #HTB-30), MDA-MB-468 (HER2-, ATCC, Cat #HTB-132) and A549 (human non-small cell lung cancer cells, ATCC, Cat #CCL-185) were selected for screening.\n(§3) The cells were counted, and 4.3×10^5, 7.2×10^5 and 11.5×10^5 cells were each added to a culture solution to give a final volume of 26 mL. 180 μL of cell suspension was added to each well in columns 2 to 11 of a 96-well plate (Corning, Cat #3903) to give cell densities of 3K, 5K and 8K per well. Wells in column 12 were each filled with 200 μL of culture solution and the remaining wells were each filled with PBS. The SKBR3 and MDA-MB-468 cells were subjected to the same operations described above. […] 2 mM stock solution (stock solution diluted 10-fold in DMSO) was prepared in column 1 of drug preparation plate 1, and then 10-fold gradient dilution in DMSO was performed through column 10, and the wells in column 11 were filled with DMSO. […] The absorption value was read using a microplate reader and IC50 was calculated."}, "[2]": {"tested_on": "MDA-MB-468 (HER2-)", "test": "In vitro cytotoxic activity screening, CTG assay, MDA-MB-468", "assay_type": "cell-based", "experimental": "as §1, §2, §3"}, "[3]": {"tested_on": "A549 (human non-small cell lung cancer cells)", "test": "In vitro cytotoxic activity screening, CTG assay, A549", "assay_type": "cell-based", "experimental": "as §1, §2, §3"}, "[4]": {"test": "Pharmacokinetic experiment for beagles, intravenous administration", "settings": "0.5 mg/kg", "experimental": "(§4) Plasma samples were stored in a refrigerator at −80° C. prior to testing.\nas §4"}}}
{"smiles": "C=C1C[C@@H]2CC[C@@]34C[C@H]5O[C@H]6[C@@H](O3)[C@H]3O[C@H](CC[C@@H]3O[C@H]6[C@H]5O4)CC(=O)C[C@@H]3[C@@H](OC)[C@@H](C[C@@H](CN)OC)O[C@H]3C[C@H]3O[C@@H](CC[C@@H]1O2)C[C@@H](C)C3=C", "note": "[Compound 1]", "values": [{"measurement": "IC50", "setting": "[1]; Homo sapiens, SK-BR-3, read-out: IC50 (nM) SKBR3", "value": 0.205, "unit": "nM"}, {"measurement": "Maximum inhibition rate (%) SKBR3", "setting": "[1]; SKBR3, CTG", "value": 96.87, "unit": "%"}, {"measurement": "IC50", "setting": "[2]; Homo sapiens, MDA-MB-468, read-out: IC50 (nM) MDA-MB-468", "value": 0.183, "unit": "nM"}, {"measurement": "Maximum inhibition rate (%) MDA-MB-468", "setting": "[2]; MDA-MB-468, CTG", "value": 88.01, "unit": "%"}, {"measurement": "Maximum inhibition rate (%) A549", "setting": "[3]; A549, CTG", "value": 81.34, "unit": "%"}, {"measurement": "IC50", "setting": "[3]; Homo sapiens, A549, read-out: IC50 (nM) A549", "value": 0.515, "unit": "nM"}, {"measurement": "Plasma concentration C5 min", "setting": "[4]", "value": 82.1, "unit": "ng/mL"}]}
